{
  "source": "ChEMBL document CHEMBL4229426",
  "about": "“Synthesis, antitumor activity evaluation and mechanistic study of novel hederacolchiside A1 derivatives bearing an aryl triazole moiety” (Bioorg Med Chem, 2018)",
  "key": {"[1]": {"tested_on": "PC-3", "assay": "Antiproliferative activity against human PC3 cells after 48 hrs by MTT assay", "type": "functional, cell-based", "conditions": "PC-3, 48 h"}, "[2]": {"tested_on": "HT-29", "assay": "Antiproliferative activity against human HT-29 cells after 48 hrs by MTT assay", "type": "functional, cell-based", "conditions": "HT-29, 48 h"}, "[3]": {"tested_on": "HepG2", "assay": "Antiproliferative activity against human HepG2 cells after 48 hrs by MTT assay", "type": "functional, cell-based", "conditions": "HepG2, 48 h"}, "[4]": {"tested_on": "A549", "assay": "Antiproliferative activity against human A549 cells after 48 hrs by MTT assay", "type": "functional, cell-based", "conditions": "A549, 48 h"}, "[5]": {"tested_on": "HL-60", "assay": "Antiproliferative activity against human HL60 cells after 48 hrs by MTT assay", "type": "functional, cell-based", "conditions": "HL-60, 48 h"}, "[6]": {"tested_on": "U-937", "assay": "Antiproliferative activity against human U937 cells after 48 hrs by MTT assay", "type": "functional, cell-based", "conditions": "U-937, 48 h"}, "[7]": {"tested_on": "HepG2", "assay": "Induction of apoptosis in human HepG2 cells assessed as necrotic cells at 0.5 uM after 48 hrs by Annexin V-FITC/propidium iodide staining based flow cytometry (reference value: 0.06%)", "type": "functional"}, "[8]": {"tested_on": "HepG2", "assay": "Induction of apoptosis in human HepG2 cells assessed as late apoptotic cells at 0.5 uM after 48 hrs by Annexin V-FITC/propidium iodide staining based flow cytometry (reference value: 0.02%)", "type": "functional"}, "[9]": {"tested_on": "HepG2", "assay": "Induction of apoptosis in human HepG2 cells assessed as live cells at 0.5 uM after 48 hrs by Annexin V-FITC/propidium iodide staining based flow cytometry (reference value: 95.5%)", "type": "functional"}, "[10]": {"tested_on": "HepG2", "assay": "Induction of apoptosis in human HepG2 cells assessed as early apoptotic cells at 0.5 uM after 48 hrs by Annexin V-FITC/propidium iodide staining based flow cytometry (reference value: 4.42%)", "type": "functional"}, "[11]": {"tested_on": "HepG2", "assay": "Induction of apoptosis in human HepG2 cells assessed as necrotic cells at 1 uM after 48 hrs by Annexin V-FITC/propidium iodide staining based flow cytometry (reference value: 0.06%)", "type": "functional"}, "[12]": {"tested_on": "HepG2", "assay": "Induction of apoptosis in human HepG2 cells assessed as late apoptotic cells at 1 uM after 48 hrs by Annexin V-FITC/propidium iodide staining based flow cytometry (reference value: 0.02%)", "type": "functional"}, "[13]": {"tested_on": "HepG2", "assay": "Induction of apoptosis in human HepG2 cells assessed as live cells at 1 uM after 48 hrs by Annexin V-FITC/propidium iodide staining based flow cytometry (reference value: 95.5%)", "type": "functional"}, "[14]": {"tested_on": "HepG2", "assay": "Induction of apoptosis in human HepG2 cells assessed as early apoptotic cells at 1 uM after 48 hrs by Annexin V-FITC/propidium iodide staining based flow cytometry (reference value: 4.42%)", "type": "functional"}, "[15]": {"tested_on": "HepG2", "assay": "Induction of apoptosis in human HepG2 cells assessed as necrotic cells at 2 uM after 48 hrs by Annexin V-FITC/propidium iodide staining based flow cytometry (reference value: 0.06%)", "type": "functional"}, "[16]": {"tested_on": "HepG2", "assay": "Induction of apoptosis in human HepG2 cells assessed as late apoptotic cells at 2 uM after 48 hrs by Annexin V-FITC/propidium iodide staining based flow cytometry (reference value: 0.02%)", "type": "functional"}, "[17]": {"tested_on": "HepG2", "assay": "Induction of apoptosis in human HepG2 cells assessed as live cells at 2 uM after 48 hrs by Annexin V-FITC/propidium iodide staining based flow cytometry (reference value: 95.5%)", "type": "functional"}, "[18]": {"tested_on": "HepG2", "assay": "Induction of apoptosis in human HepG2 cells assessed as early apoptotic cells at 2 uM after 48 hrs by Annexin V-FITC/propidium iodide staining based flow cytometry (reference value: 4.42%)", "type": "functional"}, "[19]": {"tested_on": "HepG2", "assay": "Cell cycle arrest in human HepG2 cells after 48 hrs by propidium iodide staining based flow cytometry", "type": "functional"}, "[20]": {"tested_on": "HepG2", "assay": "Cell cycle arrest in human HepG2 cells assessed as accumulation at G1-phase at 0.5 uM after 48 hrs by propidium iodide staining based flow cytometry (reference value: 40.6%)", "type": "functional"}, "[21]": {"tested_on": "HepG2", "assay": "Cell cycle arrest in human HepG2 cells assessed as accumulation at G2-phase at 0.5 uM after 48 hrs by propidium iodide staining based flow cytometry (reference value: 32.61%)", "type": "functional"}, "[22]": {"tested_on": "HepG2", "assay": "Cell cycle arrest in human HepG2 cells assessed as accumulation at S-phase at 0.5 uM after 48 hrs by propidium iodide staining based flow cytometry (reference value: 26.79%)", "type": "functional"}, "[23]": {"tested_on": "HepG2", "assay": "Cell cycle arrest in human HepG2 cells assessed as accumulation at G1-phase at 1 uM after 48 hrs by propidium iodide staining based flow cytometry (reference value: 40.6%)", "type": "functional"}, "[24]": {"tested_on": "HepG2", "assay": "Cell cycle arrest in human HepG2 cells assessed as accumulation at G2-phase at 1 uM after 48 hrs by propidium iodide staining based flow cytometry (reference value: 32.61%)", "type": "functional"}, "[25]": {"tested_on": "HepG2", "assay": "Cell cycle arrest in human HepG2 cells assessed as accumulation at S-phase at 1 uM after 48 hrs by propidium iodide staining based flow cytometry (reference value: 26.79%)", "type": "functional"}, "[26]": {"tested_on": "HepG2", "assay": "Cell cycle arrest in human HepG2 cells assessed as accumulation at G1-phase at 2 uM after 48 hrs by propidium iodide staining based flow cytometry (reference value: 40.6%)", "type": "functional"}, "[27]": {"tested_on": "HepG2", "assay": "Cell cycle arrest in human HepG2 cells assessed as accumulation at G2-phase at 2 uM after 48 hrs by propidium iodide staining based flow cytometry (reference value: 32.61%)", "type": "functional"}, "[28]": {"tested_on": "HepG2", "assay": "Cell cycle arrest in human HepG2 cells assessed as accumulation at S-phase at 2 uM after 48 hrs by propidium iodide staining based flow cytometry (reference value: 26.79%)", "type": "functional"}, "[29]": {"tested_on": "HepG2", "assay": "Induction of mitochondrial membrane depolarization in human HepG2 cells at 0.5 uM after 48 hrs by JC-1 staining based flow cytometry (reference value: 1.3%)", "type": "functional"}, "[30]": {"tested_on": "HepG2", "assay": "Induction of mitochondrial membrane depolarization in human HepG2 cells at 1 uM after 48 hrs by JC-1 staining based flow cytometry (reference value: 1.3%)", "type": "functional"}, "[31]": {"tested_on": "HepG2", "assay": "Induction of mitochondrial membrane depolarization in human HepG2 cells at 2 uM after 48 hrs by JC-1 staining based flow cytometry (reference value: 1.3%)", "type": "functional"}, "[32]": {"tested_on": "HepG2", "assay": "Induction of mitochondrial membrane depolarization in human HepG2 cells after 48 hrs by JC-1 staining based flow cytometry", "type": "functional, cell-based"}, "[33]": {"tested_on": "HepG2", "assay": "Upregulation of cytochrome-c protein expression in human HepG2 cells assessed as ratio of cytochrome-c to GAPDH expression level at 0.5 to 2 uM after 48 hrs by Western blot analysis (reference value: 0.05)", "type": "functional"}, "[34]": {"tested_on": "HepG2", "assay": "Upregulation of cytochrome-c protein expression in human HepG2 cells after 48 hrs by Western blot analysis", "type": "functional, cell-based"}, "[35]": {"tested_on": "HepG2", "assay": "Downregulation of Bcl2 protein expression in human HepG2 cells assessed as ratio of Bcl2 to GAPDH expression level at 0.5 uM after 48 hrs by Western blot analysis (reference value: 0.97)", "type": "functional"}, "[36]": {"tested_on": "HepG2", "assay": "Downregulation of Bcl2 protein expression in human HepG2 cells assessed as ratio of Bcl2 to GAPDH expression level at 1 uM after 48 hrs by Western blot analysis (reference value: 0.97)", "type": "functional"}, "[37]": {"tested_on": "HepG2", "assay": "Downregulation of Bcl2 protein expression in human HepG2 cells assessed as ratio of Bcl2 to GAPDH expression level at 2 uM after 48 hrs by Western blot analysis (reference value: 0.97)", "type": "functional"}, "[38]": {"tested_on": "HepG2", "assay": "Upregulation of caspase-3 protein expression in human HepG2 cells assessed as ratio of caspase-3 to GAPDH expression level at 2 uM after 48 hrs by Western blot analysis (reference value: 0.25)", "type": "functional"}, "[39]": {"tested_on": "HepG2", "assay": "Upregulation of caspase-9 protein expression in human HepG2 cells assessed as ratio of caspase-9 to GAPDH expression level at 1 uM after 48 hrs by Western blot analysis (reference value: 0.17)", "type": "functional"}, "[40]": {"tested_on": "HepG2", "assay": "Upregulation of caspase-9 protein expression in human HepG2 cells at 2 uM after 48 hrs by Western blot analysis", "type": "functional, cell-based"}},
  "note": "pIC50: −log10 of the molar value. The source made the active and inactive calls. The calls are words filed in the database; no cut-off is given here.",
  "data": [
    {"molecule": "Cc1ccc(-n2cc(CNC(=O)[C@]34CCC(C)(C)C[C@H]3C3=CC[C@@H]5[C@@]6(C)CC[C@H](O[C@@H]7OC[C@H](O[C@@H]8O[C@H](CO)[C@@H](O)[C@H](O)[C@H]8O)[C@H](O)[C@H]7O[C@@H]7O[C@@H](C)[C@H](O)[C@@H](O)[C@H]7O)C(C)(C)[C@@H]6CC[C@@]5(C)[C@]3(C)CC4)nn2)cc1", "values": [
      {"measurement": "pIC50", "setting": "[1]", "value": 6.27},
      {"measurement": "pIC50", "setting": "[2]", "value": 6.03},
      {"measurement": "pIC50", "setting": "[3]", "value": 6.27},
      {"measurement": "pIC50", "setting": "[4]", "value": 5.58},
      {"measurement": "pIC50", "setting": "[5]", "value": 6.09},
      {"measurement": "pIC50", "setting": "[6]", "value": 6.14},
      {"measurement": "Activity", "setting": "[7]", "value": 0.3, "unit": "%"},
      {"measurement": "Activity", "setting": "[8]", "value": 6.89, "unit": "%"},
      {"measurement": "Activity", "setting": "[9]", "value": 74.94, "unit": "%"},
      {"measurement": "Activity", "setting": "[10]", "value": 17.87, "unit": "%"},
      {"measurement": "Activity", "setting": "[11]", "value": 0.56, "unit": "%"},
      {"measurement": "Activity", "setting": "[12]", "value": 21.58, "unit": "%"},
      {"measurement": "Activity", "setting": "[13]", "value": 53.1, "unit": "%"},
      {"measurement": "Activity", "setting": "[14]", "value": 24.76, "unit": "%"},
      {"measurement": "Activity", "setting": "[15]", "value": 1.51, "unit": "%"},
      {"measurement": "Activity", "setting": "[16]", "value": 35.77, "unit": "%"},
      {"measurement": "Activity", "setting": "[17]", "value": 41.56, "unit": "%"},
      {"measurement": "Activity", "setting": "[18]", "value": 21.07, "unit": "%"},
      {"measurement": "Activity", "setting": "[19]", "value": "Dose-dependent effect"},
      {"measurement": "Activity", "setting": "[20]", "value": 48.7, "unit": "%"},
      {"measurement": "Activity", "setting": "[21]", "value": 18.01, "unit": "%"},
      {"measurement": "Activity", "setting": "[22]", "value": 33.29, "unit": "%"},
      {"measurement": "Activity", "setting": "[23]", "value": 48.4, "unit": "%"},
      {"measurement": "Activity", "setting": "[24]", "value": 15.68, "unit": "%"},
      {"measurement": "Activity", "setting": "[25]", "value": 35.92, "unit": "%"},
      {"measurement": "Activity", "setting": "[26]", "value": 49.35, "unit": "%"},
      {"measurement": "Activity", "setting": "[27]", "value": 11.33, "unit": "%"},
      {"measurement": "Activity", "setting": "[28]", "value": 39.32, "unit": "%"},
      {"measurement": "Activity", "setting": "[29]", "value": 15.98, "unit": "%"},
      {"measurement": "Activity", "setting": "[30]", "value": 33.51, "unit": "%"},
      {"measurement": "Activity", "setting": "[31]", "value": 54.12, "unit": "%"},
      {"measurement": "Activity", "setting": "[32]", "value": "Dose-dependent effect"},
      {"measurement": "Ratio", "setting": "[33]", "value": 0.4},
      {"measurement": "Activity", "setting": "[34]", "value": "Dose-dependent effect"},
      {"measurement": "Ratio", "setting": "[35]", "value": 0.64},
      {"measurement": "Ratio", "setting": "[36]", "value": 0.47},
      {"measurement": "Ratio", "setting": "[37]", "value": 0.19},
      {"measurement": "Ratio", "setting": "[38]", "value": 0.63},
      {"measurement": "Ratio", "setting": "[39]", "value": 0.45},
      {"measurement": "Activity", "setting": "[40]", "value": "Active"}
    ]}
  ]
}
